The test system of experiment [1] is non-replicating M. tuberculosis, luciferase reporter luminescence. Put plainly: inhibitors of non-replicating M. tuberculosis, dose response, luciferase, dry powder (AID 743183).
Assay in experiment [2]: as above
Conditions: non-replicating M. tuberculosis, luciferase reporter luminescence; at 38 µM (top of the series).

Records with an inconclusive call do not appear. Calls of active or inactive are those of the source. The rule behind the calls is not given here.

As to `Clc1cccc(CNCCNCc2cccc(Cl)c2)c1`, the AC90 in experiment [1] is 19.4 µM.

As for `Brc1c(-c2ccc3c(c2)OCO3)nc2ncccn12`, the AC90 in experiment [1] was 12.9 µM.

With `O=C(NC1CC2CCC1C2)C1COc2ccccc2O1` (configuration not stated), the AC90 in experiment [1] was 1.39 µM.

Take `CCOC(=O)COc1ccc(C(=O)NC2CCCCC2)cc1`: the AC90 in experiment [1] is 8.93 µM.

On to `O=C(OCc1ccc(Cl)c(Cl)c1)c1ccccn1`, for which, in experiment [2], the activity change, negative = inhibition was -46.6% (inactive). In the case of `NC1CCN(c2c(F)cc3c(=O)c(C(=O)O)cn(C4CC4)c3c2Cl)C1` (configuration not stated), the AC90 in experiment [1] is 2.04 µM. `Clc1cccc(-c2ccc(CNCc3ccccn3)o2)c1`: the AC90 in experiment [1] is 16.3 µM. Still for that read-out and setting: the same measure for `CCOC(=O)c1cc(-c2csc(COc3ccccc3Cl)n2)on1`: 4.52 µM; for `CCOCCOC(=O)COc1ccc2c(-c3ccccc3)cc(=O)oc2c1`: 8.82 µM. Regarding `CCOC(=O)COc1ccc2c(=O)c(-c3ccccc3)coc2c1`, the AC90 in experiment [1] is 3.65 µM. Turning to `Cc1ccc(C)c(-c2csc(NC(=O)c3cnccn3)n2)c1`, in experiment [2], the activity change, negative = inhibition is -66.6% (inactive). Regarding `Cc1cc(C)n2nc(S(=O)(=O)Nc3c(Cl)cccc3Cl)nc2n1`, the AC90 in experiment [1] was 5.45 µM. The same measure, in the same setting: as for `Fc1ccc(-c2ccc(CNCc3ccccn3)o2)cc1Cl`, the figure is 13.7 µM; as for `O=C(CCc1ccccc1)NC1C2CC3CC(C2)CC1C3` (configuration not stated), 10.3 µM. Same read-out and setting: as for `O=C(COc1c(Br)cc(Br)c2cccnc12)N1CCCCC1`, the figure is 7.78 µM; as for `Cc1nnc(NC(=O)c2ccc3ccccc3c2)o1`, 0.372 µM; as for `COC(=O)COc1cccc(NC(=O)c2ccc(Cl)cc2)c1`, 11.7 µM. `N#Cc1nc(-c2cccs2)oc1NCCc1ccccc1`: the activity change, negative = inhibition in experiment [2] is -87.4% (inactive). As to `O=C(CCN1CCC(c2cccs2)=N1)c1cccs1`, in experiment [1], the AC90 was 14.3 µM. Same read-out and setting: as for `O=C(COc1cccc2ccccc12)Nc1nc2ccccc2[nH]1`, the figure is 6.61 µM. The same measure, in the same setting: as for `c1ccc(Nc2nc(-c3ccccn3)cs2)cc1`, the figure is 1.95 µM; as for `CCc1ccc(OCCCC(=O)NCc2ccco2)cc1`, 31.8 µM; as for `COC(=O)COc1ccc2c(=O)c(Oc3ccccc3)c(C)oc2c1`, 2.94 µM.

Consider `CCOC(=O)CNC(=O)N1c2ccccc2Sc2ccccc21`, for which, in experiment [2], the activity change, negative = inhibition was -75.4% (inactive). In the case of `Cc1cc(NC(=O)C2CCCCC2)n(-c2nc3ccccc3[nH]2)n1`, in experiment [1], the AC90 is 12.9 µM. Still for that read-out and setting: as for `CCOC(=O)COc1ccc2c(=O)cc(-c3ccccc3)oc2c1`, the figure is 2.9 µM. On the same count and under the same terms, the same measure for `CCCCN(C/C=C/c1ccccc1OC)Cc1ccccc1`: 24.6 µM; for `NC(=O)C1(N2CCCCC2)CCN(C2CC(=O)N(CCc3ccccc3)C2=O)CC1` (configuration not stated): 22.3 µM; for `CCCOC(=O)c1ccc(NC(=O)c2ccc(Br)o2)cc1`: 7.14 µM. Same read-out and setting: as for `CS(=O)(=O)Cc1nc2ccccc2oc1=O`, the figure is 38.6 µM; as for `CCOC(=O)COc1ccc2c(c1)C(=O)CC1(CCCCC1)O2`, 5.77 µM; as for `CCOC(=O)c1cc(-c2csc(COc3ccccc3)n2)on1`, 6.95 µM.

Regarding `Cc1cccc(Cn2ccc(NC(=O)c3ccc4c(c3)OCO4)n2)c1`, the AC90 in experiment [1] is 9.73 µM. Still for that read-out and setting: the same measure for `O=C(NCc1cccs1)c1ccc(Br)o1`: 5.8 µM; for `C=CCn1c(NC(=O)c2ccccc2)nc2ccccc21`: 7.69 µM; for `O=C(Nc1nc2ccccc2[nH]1)c1cccc(Cl)c1`: 4.96 µM.

With `Cc1cccc(C)c1N1C(=O)CC(N2CCSCC2)C1=O` (configuration not stated), in experiment [1], the AC90 was 4.7 µM.

Source of the values: PubChem BioAssay AID743183 (Broad Institute, 2013).
